Test results taken from US20090298799A1, “Methods of Treating Osteoporosis and Secondary Hyperparathyroidism Using 20-Methyl, Gemini Vitamin D3 Compounds” (BioXell S.p.A., priority 2005, published 2009).

Experiments:
[1] = Determination of maximum tolerated dose (MTD) without hypercalcemia; parameters: species or system mice; conditions: female, C57BL/6, mouse, in vivo, po; p.o. daily for four days; highest dose without hypercalcemia (serum calcium>10.7 mg/dl)
Description: The maximum tolerated dose of the vitamin D3 compounds of the invention were determined in eight week-old female C57BL/6 mice (3 mice/group) dosed orally (0.1 ml/mouse) with various concentrations of Vitamin D3 analogs daily for four days. Analogs were formulated in miglyol for a final concentration of 10, 30, 100 and 300 μg/kg when given at 0.1 ml/mouse p.o. daily. Blood for serum calcium assay was drawn by tail bleed on day five, the final day of the study. Serum calcium levels were determined using a colormetric assay (Sigma Diagnostics, procedure no. 597). The highest dose of analog tolerated without inducing hypercalcemia (serum calcium>10.7 mg/dl) was taken as the maximum tolerated does (MTD).

[2] = system: OVX rats; test: Osteoporosis, early curative treatment in 3 month old OVX rats; conditions: for Tibia (μCT) increased over OVX controls / vertebrae (L5) increase over OVX control rats: 5/7 days for 3 weeks; for efficacy compared with calcitriol: 3 month old OVX rats
Description: Three-month old Sprague Dawley female rats were purchased from CERJ or Charles River, France. Rats underwent bilateral ovariectomy (OVX) or sham-operation (Sham) under anesthesia with intraperitoneal ketamine hydrochloride (50 mg/kg BW). The success of ovariectomy was evidenced at necropsy by weighing the uterus and visualizing the absence of ovarian tissue.
Throughout the whole experiment, rats were housed at 22±2° C. with a 12 h:12 h light-dark cycle. The animals were pair-fed a standard diet (Safe, 0.6% P, 0.8% Ca) and received Eau de Volvic ad libitum.
The treatment started 3 weeks post-ovariectomy. Compounds were firstly dissolved in ethanol (1 mg/ml). The other dilutions were done in Miglyol 812N. Compounds or vehicle (sham, OVX control rats) were given by daily oral gavage (5 ml/kg), 5/7 days for 3 weeks. […] Before the beginning of treatment, groups of sham and OVX rats were sacrificed to serve as basal controls. Ten and three days before sacrifice, rats were given subcutaneous injections of calcein (10 ml/kg, Sigma) to determine dynamic changes in bone tissue. The day before sacrifice, the rats were fasted and housed in metabolic cages to collect overnight urines.
At necropsy, right long bones were removed and fixed in 70% ethanol for further μCT (tibia and femur) and histomorphometry (tibia) analysis. The whole left legs were collected for pQCT analysis. The fourth and fifth lumbar vertebrae were dissected for DXA analysis. Excised tibias were scanned by a μCT machine (Scanco Medical) with software version 3.1 for a 2D-evaluation. The scans started at a distance of 1 mm of the reference line in the proximal tibia metaphysis. Five 0.5 mm-spaced slices were analyzed. The slice thickness was 20-30 μm. Bone volume (BV/TV) and trabeculae number (TbN) and thickness (TbTh) were assessed. Excised tibias were scanned by a pQCT machine (Stratec XCT Research SA+) with software version 5.4 to assess trabecular and cortical Bone Mineral Density (BMD) of proximal tibia metaphysis. For analysis of trabecular bone, the distance between the reference line and the first measurement line was 3 mm. Three other lines separated by 1 mm were analyzed. The cortical BMD was analyzed at 20 mm from the reference line. The voxel size was 0.10 mm. The peel mode used was 20/50. The BMD of excised fourth (L4) and fifth (L5) lumbar vertebrae were scanned by a DXA machine (Hologic QDR 4500) with software optimized for small animal studies. The regional high-resolution software selected a thin X-ray aperture. The large region was 68-71 and the narrow one was 35-21 to assess the body of the vertebrae of L4 and L5.
Left tibia from each rat was removed and dissected free of adjacent tissues. The bones were fixed in 70% ethanol, dehydrated in graded concentrations of ethanol, defatted in xylene, then embedded without decalcification in methyl methacrylate. Five μm-thick sections were made and stained with toluidine blue and cyanin solochrome and used for structural and cellular parameters evaluation. Ten μm-thick sections remained unstained for florescence microscopy observations. Structural and dynamic parameters were measured in the secondary spongiosa of the proximal tibial metaphysis situated about 1 mm distal from the growth plate-epiphyseal junction. Structural parameters, i.e. trabecular bone volume BV/TV (%), trabecular thickness (μm), connections and number, as well as cellular parameters (osteoblast, osteoid surfaces and osteoclast number), and dynamic parameters (mineralizing surface, mineral apposition rate, bone formation rate) were evaluated.
Osteocalcin (IRMA kit, Immutopics), DPyr (Metra DPD EIA kit), CTx (Ratlaps ELISA, Nordic, Bioscience Diagnostics) Ca, P, creatinin (Cobas Mira analyser) and rat PTH (Immutopics) were assessed in serum or urine material according to the manufacturer's instructions.

[3] = system: renin; test: Renin inhibition in vitro
[4] = system: nephrectomized rats; test: Secondary hyperparathyroidism, 5/6 nephrectomized (uremic) rats; type: in vivo, Sprague Dawley rats; conditions: for efficacy in PTH suppression and bone porosity / results compared to Zemplar in PTH suppression, CaxP, bone porosity and aortic calcification / safety profile compared to Zemplar: rat, in vivo; for bone protection / efficacy: rats with moderate renal failure
Description: Three month-old Sprague Dawley male rats (220-250 g BW) were purchased from CERJ, France, Rats were ⅚ nephrectomized (right kidney and ⅔ left kidney removed by surgery) or sham-operated (controls) by the supplier according to Prostrakan'procedures. The success of nephrectomy was evidenced at necropsy by visualizing the kidney tissue and measuring serum creatinin and urea. There were 10-12 rats in each group. […] Twenty days after operation, phosphate (Na2HPO4) was added to Eau de Volvic (6 g/l). Experimental procedures were approved by the Animal Ethics Committee of Prostrakan and by DDSV of Seine St Denis, France. The treatment started 82 days post-nephrectomy. Compounds were firstly dissolved in ethanol (1 mg/ml). The other dilutions were done in Miglyol 812N. […] Before the beginning of treatment, groups of control and nephrectomized rats were sacrificed to served as basal controls.
The whole left legs were collected for pQCT analysis. […] Five 0.5 mm-spaced slices were analyzed. The slide thickness was 20-30 μm. Bone volume (BV/TV) and trabecular number (TbN) and thickness (TbTh) were assessed. […] Three other lines separated by 1 mm were analyzed. […] The voxel size was 0.10 mm. The peel mode used was 20/50.
Ten μm-thick sections remained unstained for fluorescence microscopy observations.
To assess the calcification, aortas (6 cm-segment starting at arch), hearts and remaining kidney tissues were removed and fixed for histology analysis. Aortas segments were fixed in 3.7% formaldehyde and embedded in paraffin. Five μm cross sections were made and stained with a Von Kossa method for the calcification evaluation. The following grading of the calcification was used: moderate when less 50% of the aortic perimeter was calcified; severe when 100% of the aortic perimeter was calcified.
Data were expressed as mean±sem. […] The ANOVA test was used for all groups.

[5] = system: IFN-γ production; test: IFN-γ production by allogeneic T cell activation in the mixed leukocyte response (MLR); type: cell-based; conditions: 120 h; allogeneic PBMC from 2 donors, 5 days, ELISA
Description: Immature dendritic cells (DC) were prepared as described in Romani, N. et al., J. Immunol. Meth. 196.137. IFN-γ production by allogeneic T cell activation in the mixed leukocyte response (MLR) was determined as described in Penna, G., et al., J. Immunol., 164: 2405-2411 (2000).
Briefly, peripheral blood mononuclear cells (PBMC) were separated from buffy coats by Ficoll gradient and the same number (3×105) of allogeneic PBMC from 2 different donors were co-cultured in 96-well flat-bottom plates. After 5 days, IFN-γ production in the MLR assay was measured by ELISA and the results expressed as amount (nM) of test compound required to induce 50% inhibition of IFN-γ production (IC50) (Table 1).

Compound | MTD at 4 days [1] | efficacy compared with calcitriol [2] | inhibition of renin in vitro compared with calcitriol [3] | results compared to Zemplar in the renin inhibition in vitro experiments [3] | peritrabecular fibrosis (tibia) ([4]; 0.1 μg/kg) | efficacy in PTH suppression and bone porosity [4] | results compared to Zemplar in PTH suppression, CaxP, bone porosity and aortic calcification [4] | safety profile compared to Zemplar [4] | bone protection [4] | efficacy [4] | also measured
C=C1/C(=C\C=C2/CCC[C@@]3(C)C2CCC3[C@](C)(CC#CC(O)(C(F)(F)F)C(F)(F)F)CCCC(C)(C)O)CC(O)C[C@@H]1O (stereo partly drawn) [Compound 1, (20S)-1,25-Dihydroxy-20-(5,5,5-trifluoro-4-hydroxy-4-trifluoromethyl-pent-2-ynyl)-cholecalciferol] | 0.3 µg/kg | greater efficacy than calcitriol |  |  |  |  |  |  |  |  | Tibia (μCT) increased over OVX controls ([2]; 0.3 μg/kg oral): 90%; vertebrae (L5) increase over OVX control rats ([2]; 0.3 μg/kg oral): 8%; efficacy vs. calcitrol on travecular bone volume ([2]; 0.3 μg/kg, FIG. 4): higher; Tibia (μCT) increased over OVX controls ([2]; 1 μg/kg oral): 114%; vertebrae (L5) increase over OVX control rats ([2]; 1 μg/kg oral): 12%
C=C1/C(=C\C=C2/CCC[C@@]3(C)C2CCC3[C@](C)(C/C=C\C(O)(C(F)(F)F)C(F)(F)F)CCCC(C)(C)O)CC(O)C[C@@H]1O (stereo partly drawn) [Compound 2, (20S)-1,25-Dihydroxy-20-((2Z)-5,5,5-trifluoro-4-hydroxy-4-trifluoromethyl-pent-2-enyl)cholecalciferol] | 0.3 µg/kg |  | stronger inhibitition of renin in vitro over calcitriol | greater or equal positive results compared to Zemplar | one of ten rats | demonstrated efficacy | greater or equal positive results compared to Zemplar | equal or more beneficial results | provided bone protection on the tibia and vertebrae | good efficacy | osteoid thickening (tibia) ([4]; 1 μg/kg): normal levels; rats with mild porous levels of femur cortical porosity ([4]; 1 μg/kg): four of ten rats; femur cortical porosity ([4]; 3 μg/kg): nine rats demonstrated normal levels; osteoid thickening (tibia) ([4]; 3 μg/kg): normal levels; peritrabecular fibrosis (tibia) ([4]; 3 μg/kg): normal levels
C=C1/C(=C\C=C2/CCC[C@@]3(C)C2CCC3[C@](C)(C/C=C/C(O)(C(F)(F)F)C(F)(F)F)CCCC(C)(C)O)CC(O)C[C@@H]1O (stereo partly drawn) [Compound 3, (20S)-1,25-Dihydroxy-20-[(2E)-5,5,5-trifluoro-4-hydroxy-4-trifluoromethyl-pent-2-enyl]-cholecalciferol] |  | greater efficacy than calcitriol |  |  |  |  |  |  |  |  | IC50 [5]: 0.044 nM
C=C1/C(=C\C=C2/CCC[C@@]3(C)C2CCC3[C@@](C)(CC#CC(O)(C(F)(F)F)C(F)(F)F)CCCC(C)(C)O)CC(O)C[C@@H]1O (stereo partly drawn) [Compound 4, (20R)-1,25-Dihydroxy-20-(5,5,5-trifluoro-4-hydroxy-4-trifluoromethyl-pent-2-ynyl)-cholecalciferol] |  |  | stronger inhibitition of renin in vitro over calcitriol | greater or equal positive results compared to Zemplar | normal levels | demonstrated efficacy | greater or equal positive results compared to Zemplar | equal or more beneficial results | provided bone protection on the tibia and vertebrae | good efficacy | osteoid thickening (tibia) ([4]; 0.03 μg): normal levels; peritrabecular fibrosis (tibia) ([4]; 0.03 μg/kg): one of nine rats; rats with mild porous levels of femur cortical porosity ([4]; 0.03 μg/kg): four of nine rats; osteoid thickening (tibia) ([4]; 0.1 μg/kg): one of nine rats; rats with mild porous levels of femur cortical porosity ([4]; 0.1 μg/kg): one of nine rats
C=C1/C(=C\C=C2/CCC[C@@]3(C)C2CCC3[C@@](C)(C/C=C/C(O)(C(F)(F)F)C(F)(F)F)CCCC(C)(C)O)CC(O)C[C@@H]1O (stereo partly drawn) [Compound 5, (20R)-1,25-Dihydroxy-20-[(2E)-5,5,5-trifluoro-4-hydroxy-4-trifluoromethyl-pent-2-enyl]-cholecalciferol] | 0.1 µg/kg |  |  |  |  |  |  |  |  |  | 
C=C1/C(=C\C=C2/CCC[C@@]3(C)C2CCC3[C@](C)(CC#CC(O)(C(F)(F)F)C(F)(F)F)CCCC(C)(C)O)CC(O)C[C@@H]1F (stereo partly drawn) [Compound 6, (20S)-1α-Fluoro-25-hydroxy-20-(5,5,5-trifluoro-4-hydroxy-4-trifluoromethyl-pent-2-ynyl)-cholecalciferol] | 100 µg/kg |  |  |  |  |  |  |  |  |  | 
